Laboratory results as given in patent EP4692072A1, “PHOTOCHROMIC COMPOUND, PROPARGYL ALCOHOL COMPOUND, CURABLE COMPOSITION, OPTICAL ARTICLE, LENS, AND SPECTACLES” (TOKUYAMA CORPORATION, priority 2023, dated 2024).

Columns and labels:
Format in all cases: physicochemical
[1] = Photochromic properties of photochromic laminate (plastic lens) prepared by coating method; details: 40 µm photochromic layer on thiourethane lens, 0.25 mmol compound per 100 g monomers, after color development
Source text: (§1) First, the photochromic compound obtained in Example 1, a photoinitiator, and a polymerizable compound were mixed to obtain a curable composition.
(§2) Polyethylene glycol dimethacrylate (average molecular weight: 736): 42 parts by mass • Polyethylene glycol dimethacrylate (average molecular weight: 536): 12 parts by mass • Trimethylolpropane trimethacrylate: 38 parts by mass γ-methacryloyloxypropyl trimethoxysilane: 2 parts by mass Glycidyl methacrylate: 1 part by mass
(§3) Note that the photochromic compound was added to the curable composition so that the amount of the photochromic compound was 0.25 mmol based on 100 g of the total amount of the radical-polymerizable monomers.
(§4) Phenylbis(2,4,6-trimethylbenzoyl)phosphine oxide (photoinitiator: Omnirad 819): 0.3 parts by mass Ethylene bis(oxyethylene) bis[3-(5-tert-butyl-4-hydroxy-m-tolyl)propionate] (stabilizer, Irganox 245): 1 part by mass Bis(1,2,2,6,6-pentamethyl-4-piperidyl) sebacate: 3 parts by mass Leveling agent (L7001) manufactured by Dow Corning Toray Co.,Ltd.: 0.1 part by mass
(§5) First, a thiourethane-based plastic lens having a central thickness of 2 mm and a refractive index of 1.60 was prepared as the optical substrate. Note that this thiourethane-based plastic lens was pre-treated by alkaline etching with a 10% sodium hydroxide aqueous solution at 50°C for 5 minutes, followed by sufficient washing with distilled water.
(§6) A surface of the above-described plastic lens was coated with a moisture-curable primer (product name: TR-SC-P, manufactured by Tokuyama Corporation) at a rotation frequency of 70 rpm for 15 seconds, followed by 1000 rpm for 10 seconds, using a spin coater (1H-DX2, manufactured by MIKASA CO., LTD), Subsequently, about 2 g of the photochromic curable composition obtained above was spin-coated at a rotation frequency of 60 rpm for 40 seconds, followed by 600 rpm for 10 to 20 seconds, to form a photochromic coating layer with a film thickness of 40 µm.
(§7) The lens with the surface coated with the photochromic curable composition (photochromic coating layer) was irradiated with light using a metal halide lamp with an output power of 200 mW/cm^2 in a nitrogen gas atmosphere for 90 seconds to cure the coating film. Subsequently, the lens was further heated at 110°C for 1 hour to prepare a photochromic laminate having a photochromic layer.
In the same manner as in Example 26, photochromic laminates were prepared using the photochromic compounds obtained in Examples 2 to 25.
(§8) • [1] Maximum Absorption Wavelength (λmax): The maximum absorption wavelength after color development, measured using a spectrophotometer (instantaneous multichannel photodetector MCPD3000) manufactured by Otsuka Electronics Co., Ltd. was used as an indicator for the color tone during the color development. • [2] 23°C Color Optical Density (A23): A difference between an absorbancy measured after light irradiation at 23°C for 300 seconds {ε(300)} and an absorbancy without light irradiation ε(0) at the maximum absorption wavelength was used as an indicator for the color optical density. […] 23°C color fading half-life [τ1/2 (sec.)]: A time required for the absorbancy of the sample at the maximum absorption wavelength to decrease to 1/2 of {ε(300)-ε(0)} when the light irradiation was terminated after the light irradiation at 23°C for 300 seconds, was used as an indicator for the color fading speed. The shorter this time, the higher the color fading speed. • [4] Residual rate (A120/A0×100): The obtained photochromic plastic lens was subjected to accelerated deterioration using a xenon weather meter X25 manufactured by Suga Test Instruments Co., Ltd. for 120 hours. Subsequently, the color optical density was evaluated before and after the test, then a color optical density before the test (A0) and a color optical density after the test (A120) were measured, and a ratio (A120/A0) was defined as a residual rate. The residual rate was used as an indicator for a color developing durability. […]

[2] = Accelerated deterioration (xenon weather meter X25, 120 hours) of photochromic laminate prepared by coating method; details: 0.25 mmol per 100 g monomers, A120/A0×100 after 120 hours xenon weather meter
Source text: as §1, §2, §3, §4, §5, §6, §7
as §8, with “durability. The higher the residual rate, the higher the color developing durability.” for “durability.”

[3] = Photochromic properties of photochromic cured product prepared by kneading method; details: 0.106 mmol per 100 g monomer
Method: (§9) • [1] Maximum Absorption Wavelength (λmax): The maximum absorption wavelength after color development, measured using a spectrophotometer (instantaneous multichannel photodetector MCPD3000) manufactured by Otsuka Electronics Co., Ltd. was used as an indicator for the color tone during the color development. • [2] 23°C Color Optical Density (A23): A difference between an absorbancy measured after light irradiation at 23°C for 300 seconds {ε(300)} and an absorbancy without light irradiation ε(0) at the maximum absorption wavelength was used as an indicator for the color optical density. […] 23°C color fading half-life [τ1/2 (sec.)]: A time required for the absorbancy of the sample at the maximum absorption wavelength to decrease to 1/2 of {ε(300)-ε(0)} when the light irradiation was terminated after the light irradiation at 23°C for 300 seconds, was used as an indicator for the color fading speed. The shorter this time, the higher the color fading speed. • [4] Residual rate (A120/A0×100): The obtained photochromic plastic lens was subjected to accelerated deterioration using a xenon weather meter X25 manufactured by Suga Test Instruments Co., Ltd. for 120 hours. Subsequently, the color optical density was evaluated before and after the test, then a color optical density before the test (A0) and a color optical density after the test (A120) were measured, and a ratio (A120/A0) was defined as a residual rate. The residual rate was used as an indicator for a color developing durability. The higher the residual rate, the higher the color developing durability. The results of Examples 26, 50, and Comparative Examples 1 to 8 are summarized in Table 1, and the results of Examples 27 to 49 are summarized in Tables 2 and 3.
(§10) First, the photochromic compound obtained in Example 1, additives, and a polymerizable compound were mixed to obtain a curable composition.
(§11) As the polymerizable compound, a combination of the following polymerizable monomers was used. • 1,3-bis(isocyanatomethyl)cyclohexane: 36.7 parts by mass Pentaerythritol tetrakis(3-mercaptopropionate): 39.4 parts by mass • Polyoxyethylene polyoxypropylene lauryl ether (Wonder Surf 140 manufactured by Aoki Oil Industrial Co., Ltd.): 17.4 parts by mass • 1-decanethiol: 2.8 parts by mass • RX-1 adjusted according to the method described in Patent Document 13: 3.8 parts by mass
(§12) Note that the photochromic compound was added to the curable composition so that the amount of the photochromic compound was 0.106 mmol based on 100 g of the total amount of the polymerizable monomer. The following additives were used: Dimethyltin dichloride • : 0.05 part by mass • Irganox 245: 0.1 part by mass • 2-ethylhexyl 4-methoxycinnamate: 0.6 part by mass
(§13) The prepared curable composition was thoroughly defoamed, then injected into a glass mold having a 1 mm gap, and polymerized by cast polymerization. The polymerization was carried out in an air furnace while gradually raising the temperature from 27°C to 120°C over 18 hours. After the polymerization, the cured product was removed from the glass mold to obtain a photochromic cured product having a thickness of 1 mm. The obtained photochromic cured product was evaluated in the same manner as in Example 26.
(§14) (Examples 85 to 99, and Comparative Example 14 to 18) Photochromic cured products were prepared using photochromic compounds presented in Tables 6 and 7 in the same manner as in Example 84. The results of Examples 84 and 85 and Comparative Examples 14 to 18 are summarized in Table 6, and the results of Examples 86 to 99 are summarized in Table 7.

[4] = Accelerated deterioration (xenon weather meter X25, 120 hours) of photochromic cured product prepared by kneading method; details: 1 mm cured product, 0.106 mmol per 100 g monomer, A120/A0×100 after 120 hours xenon weather meter
Method: as §9, §10, §11, §12, §13, §14

CCC1(CC)CCC2(CC1)c1ccccc1-c1c2c2c(c3cc(OC)c(N(c4ccccc4)c4ccccc4)cc13)OC(c1ccc(C)cc1)(c1ccc(N(C)c3ccc(C)cc3)cc1)C=C2 (centres unmarked) [Example 2]
Maximum absorption wavelength [1]: 522 nm | Residual rate [2]: 67% | A23 ([3]; 1 mm cured product, 23°C color optical density ε(300)-ε(0)): 1.41 - | Maximum absorption wavelength ([3]; 1 mm thiourethane cured product, after color development): 526 nm | Residual rate [4]: 72%
